{"source": "patent US20140135526A1", "about": "“COMPOSITIONS AND METHODS FOR 3-HYDROXYPROPIONATE BIO-PRODUCTION FROM BIOMASS” (OPX Biotechnologies, Inc., priority 2007, published 2014)", "key": {"E. coli": {"system": "E. coli", "experiment": "Alleviation of 3-HP toxicity by adding downstream products of the chorismate superpathway", "assay_type": "cell-based", "settings": "added as supplement in the presence of 3-HP", "source_text": "The data shown in FIG. 4 depict identification of the chorismate superpathway as a target of 3-HP toxicity. In some embodiments, toxicity is alleviated by several processes."}, "wild type E. coli K12": {"system": "wild type E. coli K12", "experiment": "3-HP toxicity (growth inhibition) in E. coli", "assay_type": "cell-based", "source_text": "Previous attempts to produce 3-HP via biological pathways provide product titers which have been low and these processes have required the use of expensive, rich media. Both of these factors limit commercial feasibility and profitability. The use of rich media was necessary due to the toxicity of 3-HP when fermented with the more economical minimal media. […] Further, the fermentative pathways reported by other investigators have not addressed and resolved the toxicity mechanisms of 3-HP to the host organisms. Further to issues related to commodity chemical production, which largely relies on petroleum-based starting materials, there is an increasing need to reduce the domestic usage of petroleum and natural gas. The numerous motivating factors for this increasing need include, but are not limited to: pollutant reduction (such as greenhouse gases), environmental protection, and reducing the dependence on foreign oil. These issues not only impact fuel markets, but also the markets of numerous other products that are currently derived from oil. Biorefining promises the development of efficient biological processes allowing for the conversion of renewable sources of carbon and energy into large volume commodity chemicals.\nFIG. 2 depicts 3-hydroxpropionate toxicity in E. coli K12. The minimum concentration of 3-HP that is required to inhibit visible growth after 24 hrs in minimal media is shown for wild type E. coli K12 grown in both minimal media and rich media which contains more complex nutrients.\nSevere growth inhibition has been observed for extracellular 3-HP levels as low as 10 g/L in minimal media (pH 7.0), which limits the economic feasibility of 3-HP production as a platform chemical. […] However toxicity at levels below required titers (100 g/L) are still observed in rich media."}, "[1]": {"system": "AB354 (ΔpanD) + pKK223-kgd", "assay_type": "cell-based, E. coli", "settings": "M9 minimal media plates with threonine, leucine, thiamine; 37 C overnight; 10 g/L beta-alanine, 1 mM IPTG, 0.2 g/L putrescine, 200 mg/L ampicillin where indicated", "method": "(§1) E. coli AB354 (Δ panD) was transformed with the vector controls, pKK223, pKK223-Cterm-5×his (‘5×His’ disclosed as SEQ ID NO: 24), as well as the test vectors pKK223-mcr and pKK223-Cterm-5×His-kgd (‘5×His’ disclosed as SEQ ID NO: 24), according to standard methods described below. Each of the strains were grown overnight in LB rich media supplemented with 200 mg/L ampicillin (according to standard protocols). Following overnight growth, cells twice were harvested by centrifugation and washed by resuspension in M9 minimal media (standard protocol), diluted 1:10,000 and plated on M9 minimal media plates with 0.05 g/L threonine, 0.1 g/L leucine, 0.067 g/L thiamine, with the additional appropriate supplements, where indicated at the following concentrations (10 g/L beta-alanine (Sigma Aldrich, St. Louis, Mo.), 1 mM Isopropyl β-D-1-thiogalactopyranoside (Thermo Fisher Scientific, Fairlawn, N.J.), 0.2 g/L putrescine (MPBiomedicals, Santa Ana, Calif.), 200 mg/L ampicillin (Research Products International Corp., Mt. Prospect, Ill.) After plating, agarose plates were incubated at 37 C overnight by standard methods. […] A plus (+) indicates growth on a plate, minus (−) indicates no growth. […] Putrescine is known to induce the expression of gamma-aminobutyrate transaminase in E. coli. This enzyme has been shown in some species including Rattus norvegicus to also have beta-alanine aminotransferase activity."}, "[2]": {"system": "AB354 (ΔpanD) + pKK223-mer", "assay_type": "cell-based, E. coli", "settings": "M9 minimal media plates with threonine, leucine, thiamine; 37 C overnight; 10 g/L beta-alanine, 1 mM IPTG, 0.2 g/L putrescine, 200 mg/L ampicillin where indicated", "method": "as §1"}, "AB354 (ΔpanD) + pKK223": {"system": "AB354 (ΔpanD) + pKK223", "assay_type": "cell-based, E. coli", "settings": "M9 minimal media plates with threonine, leucine, thiamine; 37 C overnight; 10 g/L beta-alanine, 1 mM IPTG, 0.2 g/L putrescine, 200 mg/L ampicillin where indicated", "method": "as §1"}, "AB354 (ΔpanD)": {"system": "AB354 (ΔpanD)", "assay_type": "cell-based, E. coli", "settings": "M9 minimal media plates with threonine, leucine, thiamine; 37 C overnight; 10 g/L beta-alanine, 1 mM IPTG, 0.2 g/L putrescine, 200 mg/L ampicillin where indicated", "method": "as §1"}, "K12": {"system": "K12", "assay_type": "cell-based, E. coli", "settings": "M9 minimal media plates with threonine, leucine, thiamine; 37 C overnight; 10 g/L beta-alanine, 1 mM IPTG, 0.2 g/L putrescine, 200 mg/L ampicillin where indicated", "method": "as §1"}}}
{"compound": "O=C(O)c1cccc(O)c1O", "note": "[2,3-dihydroxybenzoate]", "values": [{"measurement": "effect of addition on 3-HP toxicity", "setting": "E. coli", "result": "alleviate toxicity to a degree"}]}
{"compound": "O=C(O)CCO", "note": "[3-HP, 3-hydroxypropionate]", "values": [{"measurement": "extracellular 3-HP level at which severe growth inhibition is observed", "setting": "wild type E. coli K12; minimal media (pH 7.0)", "result": "≥ 10", "unit": "g/L"}, {"measurement": "3-HP level at which toxicity is still observed", "setting": "wild type E. coli K12; rich media", "result": "< 100", "unit": "g/L"}, {"measurement": "product titer at which toxic effects are observed, relative to desired titers", "setting": "wild type E. coli K12; rich media", "result": "approximately two times lower than desired titers"}, {"measurement": "3-HP level at which metabolic activity is significantly inhibited, relative to the approximate 100 g/L titer", "setting": "wild type E. coli K12; wild type E. coli, minimal media", "result": "5-10 times lower"}]}
{"compound": "CC1(C)S[C@@H]2[C@H](NC(=O)[C@H](N)c3ccccc3)C(=O)N2[C@H]1C(=O)O", "note": "[Amp, ampicillin]", "values": [{"measurement": "growth on plate, strain AB354 (ΔpanD) + pKK223-kgd", "setting": "[1]", "result": "−"}, {"measurement": "growth on plate, strain AB354 (ΔpanD) + pKK223-mer", "setting": "[2]", "result": "−"}, {"measurement": "growth on plate, strain AB354 (ΔpanD) + pKK223", "setting": "AB354 (ΔpanD) + pKK223", "result": "−"}, {"measurement": "growth on plate, strain AB354 (ΔpanD)", "setting": "AB354 (ΔpanD)", "result": "−"}, {"measurement": "growth on plate, strain K12", "setting": "K12", "result": "−"}]}
{"compound": "Nc1ccc(C(=O)O)cc1", "note": "[para-aminobenzoate]", "values": [{"measurement": "effect of addition on 3-HP toxicity", "setting": "E. coli", "result": "alleviate toxicity to a degree"}]}
{"compound": "O=C(O)c1ccc(O)cc1", "note": "[para-hydroxy-benzoate]", "values": [{"measurement": "effect of addition on 3-HP toxicity", "setting": "E. coli", "result": "alleviate toxicity to a degree"}]}
{"compound": "N[C@@H](Cc1ccccc1)C(=O)O", "note": "[phenylalanine]", "values": [{"measurement": "effect of addition on 3-HP toxicity", "setting": "E. coli", "result": "alleviate toxicity to a degree"}]}
{"compound": "N[C@@H](Cc1ccc(O)cc1)C(=O)O", "note": "[tyrosine]", "values": [{"measurement": "effect of addition on 3-HP toxicity", "setting": "E. coli", "result": "alleviate toxicity to a degree"}]}
{"compound": "NCCC(=O)O", "note": "[β-alanine, beta-alanine]", "values": [{"measurement": "growth on plate, strain AB354 (ΔpanD) + pKK223-kgd", "setting": "[1]", "result": "+"}, {"measurement": "growth on plate, strain AB354 (ΔpanD) + pKK223-mer", "setting": "[2]", "result": "+"}, {"measurement": "growth on plate, strain AB354 (ΔpanD) + pKK223", "setting": "AB354 (ΔpanD) + pKK223", "result": "+"}, {"measurement": "growth on plate, strain AB354 (ΔpanD)", "setting": "AB354 (ΔpanD)", "result": "+"}, {"measurement": "growth on plate, strain K12", "setting": "K12", "result": "+"}]}
